Activity calls are given as the source filed them.
Experiments:
[1] = molecular target: Phospholipase A2 (Homo sapiens, UniProt P04054); type: functional;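 note: confirmatory dose-response counterscreen on phospholipase A2, testing hits that came from an ultra-high-throughput screen for ATG4B inhibitors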
[2] = molecular target: Cysteine protease ATG4B (Homo sapiens, UniProt Q9Y4P1); type: functional;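 note: Fluorescence-based dose-response confirmation assay measuring inhibition of ATG4B activity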
[3] = molecular target: Neuropeptides B/W receptor type 1 (Homo sapiens, UniProt P48145); assay: human NPBW1 receptor blockade, IC50 – cell-based, fluorescence, dose response, set 6, late-stage follow-up (AID 588583); type: functional
Sequence of Neuropeptides B/W receptor type 1 (P48145 whole entry): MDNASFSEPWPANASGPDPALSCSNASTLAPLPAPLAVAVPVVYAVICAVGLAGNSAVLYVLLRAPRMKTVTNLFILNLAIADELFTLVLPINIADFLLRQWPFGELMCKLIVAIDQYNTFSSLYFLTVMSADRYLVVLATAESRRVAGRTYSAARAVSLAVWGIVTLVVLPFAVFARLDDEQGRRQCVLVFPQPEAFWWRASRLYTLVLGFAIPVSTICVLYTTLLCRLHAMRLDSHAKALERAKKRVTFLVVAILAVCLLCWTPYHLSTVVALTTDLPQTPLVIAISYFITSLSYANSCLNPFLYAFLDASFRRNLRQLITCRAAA

[4] = molecular target: Melanin-concentrating hormone receptor 1 (Homo sapiens, UniProt Q99705); assay: Late-stage fluorescence-based counterscreen for antagonists of the G-protein coupled receptor 7 (GPR7): cell-based dose response assay to identify antagonists of the melanin-concentrating hormone receptor 1 (MCHR1) Set 6.; type: functional
Sequence of Melanin-concentrating hormone receptor 1 (Q99705 whole entry): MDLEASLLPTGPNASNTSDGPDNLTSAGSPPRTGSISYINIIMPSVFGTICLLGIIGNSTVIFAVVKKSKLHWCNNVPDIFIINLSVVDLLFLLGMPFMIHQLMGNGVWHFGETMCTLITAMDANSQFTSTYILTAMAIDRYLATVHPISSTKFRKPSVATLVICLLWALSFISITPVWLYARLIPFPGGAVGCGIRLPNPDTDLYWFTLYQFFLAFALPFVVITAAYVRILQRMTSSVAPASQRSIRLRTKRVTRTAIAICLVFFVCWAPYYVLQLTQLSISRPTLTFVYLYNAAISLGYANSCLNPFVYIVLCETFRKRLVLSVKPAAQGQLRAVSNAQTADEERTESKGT

[5] = cells
[6] = molecular target: T1, Streptokinase A (Streptococcus pyogenes serotype M1, UniProt P10520); assay: viability-normalized secreted streptokinase activity reduction – plasminogen activation absorbance, OD405, dose response (AID 1914); type: functional, Streptococcus pyogenes M1 GAS;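 note: secreted streptokinase activity via plasminogen activation per viability signal from cell pellet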
T1 sequence (P10520 whole entry): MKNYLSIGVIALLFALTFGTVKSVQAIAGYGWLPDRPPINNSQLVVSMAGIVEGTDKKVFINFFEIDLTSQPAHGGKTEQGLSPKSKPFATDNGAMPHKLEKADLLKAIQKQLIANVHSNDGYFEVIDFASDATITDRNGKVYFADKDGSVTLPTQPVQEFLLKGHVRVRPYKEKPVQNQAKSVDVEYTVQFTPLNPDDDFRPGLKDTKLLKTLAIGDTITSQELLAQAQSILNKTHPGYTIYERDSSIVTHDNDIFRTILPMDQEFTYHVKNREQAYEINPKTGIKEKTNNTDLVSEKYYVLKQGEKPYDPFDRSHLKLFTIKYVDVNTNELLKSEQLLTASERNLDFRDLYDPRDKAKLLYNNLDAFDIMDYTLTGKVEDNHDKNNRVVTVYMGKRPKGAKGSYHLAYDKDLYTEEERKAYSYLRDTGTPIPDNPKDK

[7] = system: HEK293; assay: cells; type: functional, cell-based; settings: Homo sapiens
[8] = Trypanosoma cruzi growth suppression in host cells – NIH3T3 host cells, beta-gal luminescence, confirmation (AID 2044); type: functional, cell-based;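 note: intracellular parasites grown in NIH/3T3 mouse fibroblasts as host cells; luminescent beta-galactosidase reporter signal from transgenic T. cruzi replicating inside host cells; inhibitors lower the luminescence signal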
[9] = molecular target: CAAX prenyl protease 2 (Saccharomyces cerevisiae S288c, UniProt Q03530); type: biochemical
Sequence of CAAX prenyl protease 2 (Saccharomyces cerevisiae S288c, UniProt Q03530) (Q03530 whole entry): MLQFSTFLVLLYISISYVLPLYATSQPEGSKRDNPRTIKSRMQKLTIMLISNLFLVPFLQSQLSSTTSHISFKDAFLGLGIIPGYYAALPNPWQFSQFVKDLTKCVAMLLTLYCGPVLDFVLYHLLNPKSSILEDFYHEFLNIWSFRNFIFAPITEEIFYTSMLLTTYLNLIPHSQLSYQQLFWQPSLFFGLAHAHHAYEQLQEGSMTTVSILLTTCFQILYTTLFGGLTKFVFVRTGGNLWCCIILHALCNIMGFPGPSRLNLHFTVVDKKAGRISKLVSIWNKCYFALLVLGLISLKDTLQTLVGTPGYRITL

[10] = system: HEK293; assay: cells; type: functional, cell-based; settings: Homo sapiens; remark: listed apart in the source
[11] = NIH3T3 cell viability loss – ATP luminescence, mouse fibroblasts, counter-screen, dose response (AID 2010); type: functional, cell-based;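 note: cells exposed to compound for about 90 hours before reading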
[12] = molecular target: CAAX prenyl protease 2 (Homo sapiens, UniProt Q9Y256); assay: inhibition of Ras-converting CAAX protease Rce1 – biochemical, yeast membranes, quenched-peptide fluorescence, cherry-pick, dose response (AID 588849)
Sequence of CAAX prenyl protease 2 (Homo sapiens, UniProt Q9Y256) (Q9Y256 whole entry): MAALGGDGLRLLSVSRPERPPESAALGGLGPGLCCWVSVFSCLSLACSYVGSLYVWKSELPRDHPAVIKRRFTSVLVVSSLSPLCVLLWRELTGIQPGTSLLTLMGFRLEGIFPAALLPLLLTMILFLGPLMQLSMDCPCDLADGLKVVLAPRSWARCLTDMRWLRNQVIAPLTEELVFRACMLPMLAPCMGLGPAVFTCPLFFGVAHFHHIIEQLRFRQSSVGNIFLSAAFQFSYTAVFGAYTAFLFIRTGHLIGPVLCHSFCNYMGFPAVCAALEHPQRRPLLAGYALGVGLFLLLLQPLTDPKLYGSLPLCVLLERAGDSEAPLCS

[13] = system: HEK293; assay: NOD2 signaling inhibitors in MDP-stimulated cells, cell-based, uHTS, luminescence (AID 2001); type: functional; settings: Homo sapiens
[14] = system: HEK293; assay: inhibition of NOD1-driven NF-kB reporter – cell-based, luminescence, uHTS, primary screen (AID 1578); type: functional; settings: Homo sapiens
[15] = system: Streptococcus; assay: GAS UMAA2166 growth inhibition – luminescence, BacTiterGlo, counter-screen for streptokinase expression inhibitor project, dose response (AID 1915); type: functional, organism-based;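 note: potency for reduction of bacterial viability or growth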
[16] = molecular target: DNA repair protein RAD52 homolog (Homo sapiens, UniProt P43351); type: functional, biochemical
Sequence of DNA repair protein RAD52 homolog (P43351 whole entry): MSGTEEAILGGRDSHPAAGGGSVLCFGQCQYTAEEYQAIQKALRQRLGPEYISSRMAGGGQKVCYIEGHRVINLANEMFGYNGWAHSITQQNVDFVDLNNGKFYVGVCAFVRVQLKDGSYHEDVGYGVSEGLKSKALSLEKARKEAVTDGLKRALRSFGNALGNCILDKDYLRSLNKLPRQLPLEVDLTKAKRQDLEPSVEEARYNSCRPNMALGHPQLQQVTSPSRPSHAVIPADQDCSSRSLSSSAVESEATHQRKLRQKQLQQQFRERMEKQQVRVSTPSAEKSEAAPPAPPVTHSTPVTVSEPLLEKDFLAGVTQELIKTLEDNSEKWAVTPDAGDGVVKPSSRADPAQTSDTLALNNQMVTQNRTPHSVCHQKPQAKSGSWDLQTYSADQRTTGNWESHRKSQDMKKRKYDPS

[17] = system: Streptococcus sp. 'group A'; assay: Streptococcus pyogenes SK(-)GAS viability under kanamycin – luminescence, BacTiterGlo, confirmation, counter-screen for streptokinase expression inhibitor project, dose response (AID 1900); type: functional, organism-based
[18] = molecular target: T2, Replicative DNA helicase DnaB (Mycobacterium tuberculosis, UniProt P9WMR3); assay: DnaB intein splicing inhibitors, dose response, biochemical, cell-free fluorescence (AID 449749); type: functional
T2 sequence (P9WMR3 whole entry): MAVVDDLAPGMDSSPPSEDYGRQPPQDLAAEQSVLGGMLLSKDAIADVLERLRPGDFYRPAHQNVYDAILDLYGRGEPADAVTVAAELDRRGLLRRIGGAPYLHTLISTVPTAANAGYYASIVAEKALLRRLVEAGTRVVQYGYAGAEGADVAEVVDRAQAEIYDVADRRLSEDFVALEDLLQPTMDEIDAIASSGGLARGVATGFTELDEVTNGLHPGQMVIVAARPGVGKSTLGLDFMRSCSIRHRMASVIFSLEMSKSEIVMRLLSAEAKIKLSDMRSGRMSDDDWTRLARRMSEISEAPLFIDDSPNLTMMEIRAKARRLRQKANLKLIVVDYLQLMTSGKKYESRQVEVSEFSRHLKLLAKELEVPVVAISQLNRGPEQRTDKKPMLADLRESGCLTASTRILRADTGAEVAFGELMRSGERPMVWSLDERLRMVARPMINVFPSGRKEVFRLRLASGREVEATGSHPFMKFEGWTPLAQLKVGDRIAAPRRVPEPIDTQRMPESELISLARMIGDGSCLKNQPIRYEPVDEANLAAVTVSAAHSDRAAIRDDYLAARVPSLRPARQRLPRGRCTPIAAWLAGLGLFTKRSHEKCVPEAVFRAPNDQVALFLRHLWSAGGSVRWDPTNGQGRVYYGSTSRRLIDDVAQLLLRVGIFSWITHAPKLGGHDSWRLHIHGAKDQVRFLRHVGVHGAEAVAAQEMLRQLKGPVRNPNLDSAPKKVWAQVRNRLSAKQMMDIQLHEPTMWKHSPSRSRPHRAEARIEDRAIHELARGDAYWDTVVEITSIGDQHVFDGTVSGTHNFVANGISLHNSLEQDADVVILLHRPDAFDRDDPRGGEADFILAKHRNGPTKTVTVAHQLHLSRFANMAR

[19] = molecular target: T3, Protein RecA (Mycobacterium tuberculosis, UniProt P9WHJ3); assay: Fluorescence Cell-Free Homogeneous Dose Retest to Identify Inhibitors of RecA-Intein Splicing Activity. [Related pubchem assays (depositor defined):AID2097, AID2223, AID489010, AID492950]; type: functional
T3 sequence (P9WHJ3 whole entry): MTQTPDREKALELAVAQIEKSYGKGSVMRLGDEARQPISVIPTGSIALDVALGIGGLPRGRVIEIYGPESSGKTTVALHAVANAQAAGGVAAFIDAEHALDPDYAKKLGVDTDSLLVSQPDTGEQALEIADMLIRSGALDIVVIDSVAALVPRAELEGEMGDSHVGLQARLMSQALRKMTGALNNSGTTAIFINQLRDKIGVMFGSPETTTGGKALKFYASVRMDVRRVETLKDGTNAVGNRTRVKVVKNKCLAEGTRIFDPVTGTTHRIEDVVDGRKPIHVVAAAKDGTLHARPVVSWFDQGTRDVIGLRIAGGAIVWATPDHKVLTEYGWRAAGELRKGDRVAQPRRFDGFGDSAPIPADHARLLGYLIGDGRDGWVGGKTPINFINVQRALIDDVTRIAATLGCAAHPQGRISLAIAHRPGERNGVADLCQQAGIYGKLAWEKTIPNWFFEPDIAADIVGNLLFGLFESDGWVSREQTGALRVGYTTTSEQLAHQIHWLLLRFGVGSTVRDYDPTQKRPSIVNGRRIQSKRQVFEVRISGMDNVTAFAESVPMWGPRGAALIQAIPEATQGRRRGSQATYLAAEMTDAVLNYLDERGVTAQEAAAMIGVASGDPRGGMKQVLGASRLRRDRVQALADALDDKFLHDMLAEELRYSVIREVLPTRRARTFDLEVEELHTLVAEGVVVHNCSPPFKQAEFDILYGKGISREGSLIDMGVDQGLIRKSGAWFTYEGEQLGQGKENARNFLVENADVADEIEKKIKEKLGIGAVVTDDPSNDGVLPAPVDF

[20] = molecular target: 26S proteasome non-ATPase regulatory subunit 14 (Homo sapiens, UniProt O00487); assay: inhibition of proteasome subunit RPN11 – biochemical, fluorescence polarization, uHTS hits, confirmation (AID 602368); type: functional
Sequence of 26S proteasome non-ATPase regulatory subunit 14 (O00487 whole entry): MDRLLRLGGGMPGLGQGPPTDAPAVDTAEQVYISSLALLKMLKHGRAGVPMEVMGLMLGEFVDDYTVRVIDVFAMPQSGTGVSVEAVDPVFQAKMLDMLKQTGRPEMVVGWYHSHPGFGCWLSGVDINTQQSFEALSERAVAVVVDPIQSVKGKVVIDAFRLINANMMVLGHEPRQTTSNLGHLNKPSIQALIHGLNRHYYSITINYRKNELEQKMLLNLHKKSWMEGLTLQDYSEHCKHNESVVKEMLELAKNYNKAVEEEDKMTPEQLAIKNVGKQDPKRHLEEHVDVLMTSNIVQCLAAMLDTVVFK

[21] = molecular target: 72 kDa type IV collagenase (Homo sapiens, UniProt P08253); assay: Dose Response validation of uHTS RPN11 inhibitor hits using a MMP-2 Fluorescence assay.; type: functional
Sequence of 72 kDa type IV collagenase (P08253 whole entry): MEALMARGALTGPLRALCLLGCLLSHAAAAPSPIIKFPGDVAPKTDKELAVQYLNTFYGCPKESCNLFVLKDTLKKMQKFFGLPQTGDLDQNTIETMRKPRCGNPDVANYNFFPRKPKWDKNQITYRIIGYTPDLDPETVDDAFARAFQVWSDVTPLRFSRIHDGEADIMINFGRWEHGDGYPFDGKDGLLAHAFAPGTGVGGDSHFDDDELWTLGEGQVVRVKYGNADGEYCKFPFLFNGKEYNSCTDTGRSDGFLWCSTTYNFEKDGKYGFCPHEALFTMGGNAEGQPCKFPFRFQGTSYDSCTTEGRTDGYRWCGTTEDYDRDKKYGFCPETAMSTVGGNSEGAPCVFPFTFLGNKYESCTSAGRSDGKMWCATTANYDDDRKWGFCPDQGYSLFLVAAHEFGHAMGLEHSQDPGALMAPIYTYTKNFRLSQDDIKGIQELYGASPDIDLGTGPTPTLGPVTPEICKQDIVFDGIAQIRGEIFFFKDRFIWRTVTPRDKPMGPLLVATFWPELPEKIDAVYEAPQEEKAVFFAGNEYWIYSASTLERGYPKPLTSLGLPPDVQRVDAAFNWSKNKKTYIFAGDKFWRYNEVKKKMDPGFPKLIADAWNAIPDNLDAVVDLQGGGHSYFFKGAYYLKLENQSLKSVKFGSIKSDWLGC

[22] = molecular target: Prothrombin (Bos taurus, UniProt P00735); assay: thrombin protease inhibitors – biochemical, fluorescence polarization, uHTS hits, dose response (AID 602369); type: functional

Sequence of Cysteine protease ATG4B (Q9Y4P1 whole entry): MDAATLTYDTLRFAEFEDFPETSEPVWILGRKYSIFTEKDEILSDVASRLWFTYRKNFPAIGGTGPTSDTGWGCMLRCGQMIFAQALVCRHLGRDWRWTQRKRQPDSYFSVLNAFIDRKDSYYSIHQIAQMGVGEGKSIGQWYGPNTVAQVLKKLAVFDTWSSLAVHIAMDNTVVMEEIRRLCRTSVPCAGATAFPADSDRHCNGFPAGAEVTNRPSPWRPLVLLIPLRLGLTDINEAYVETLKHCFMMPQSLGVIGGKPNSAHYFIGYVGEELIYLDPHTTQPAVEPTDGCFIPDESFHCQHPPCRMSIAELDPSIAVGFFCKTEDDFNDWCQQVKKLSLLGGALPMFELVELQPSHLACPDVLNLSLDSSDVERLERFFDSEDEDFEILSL
Sequence of Phospholipase A2 (P04054 whole entry): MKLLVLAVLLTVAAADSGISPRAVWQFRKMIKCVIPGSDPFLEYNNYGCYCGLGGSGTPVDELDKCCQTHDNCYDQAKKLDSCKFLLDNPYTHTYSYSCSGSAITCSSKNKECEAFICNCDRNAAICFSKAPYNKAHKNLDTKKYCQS

CCOC(=O)C(C)Sc1nc2ccccc2c(=O)n1CC1CCCCC1 (centres undefined)
active: IC50 [1] 2.05 µM | IC50 [2] 2.36 µM

COc1ccc(Oc2c(Cl)cnn(Cc3ccccc3Br)c2=O)cc1
active: IC50 [3] 0.506 µM | IC50 [4] 0.506 µM

CCOC(=O)c1c(C)[nH]c(C(=O)COC(=O)COc2ccccc2C=O)c1C
active: IC50 [1] 9.64 µM | IC50 [2] 10.5 µM

CCC(C)(C)c1ccc(OCCCC[n+]2cccc(C)c2)c(C(C)(C)CC)c1
> 30 µM (not active): EC50 [11]
active: EC50 [5] 0.128 µM | EC50 [6] 14.1 µM | IC50 [7] 7.99 µM | EC50 [8] < 0.1 µM | AC50 [9] 10.5 µM | IC50 [10] 4.11 µM | AC50 [12] 22 µM | IC50 [13] 3.36 µM | EC50 [14] 8.28 µM | EC50 [15] 14.9 µM | AC50 [16] 7.32 µM | EC50 [17] 6.58 µM

Nc1c(-c2ccccc2)c(CSc2nc3ccccc3[nH]2)nn1-c1cccc(Cl)c1
> 60 µM (not active): EC50 [11]
active: AC50 [18] 3.17 µM | EC50 [8] 1.17 µM | EC50 [19] 2.71 µM | IC50 [20] 34 µM | IC50 [22] 41.5 µM | EC50 [17] 2.14 µM
> 150 µM (not active): EC50 [6] | EC50 [15]
inactive: IC50 [21] > 100 µM

From ChEMBL document CHEMBL1201862, “PubChem BioAssay data set” (2004)
